Values of other authors, collected in patent US20240398764A1, “METHODS OF TREATING DISEASES ASSOCIATED WITH SENESCENT CELL ACCUMULATION” (University of Florida Research Foundation, Incorporated, priority 2021, published 2024).

How the values were obtained:
platelets [1] = settings: literature statement; cited from earlier work
platelets [2] = settings: vs ABT263; cited from earlier work
SnCs = settings: vs ABT263; cited from earlier work

CC1(C)CCC(CN2CCN(c3ccc(C(=O)NS(=O)(=O)c4ccc(NCC5CCOCC5)c([N+](=O)[O-])c4)c(Oc4cnc5[nH]ccc5c4)c3)CC2)=C(c2ccc(Cl)cc2)C1 [ABT199]
Platelet apoptosis / thrombocytopenia (platelets [1]): does not induce thrombocytopenia

CC1(C)CCC(c2ccc(Cl)cc2)=C(CN2CCN(c3ccc(C(=O)NS(=O)(=O)c4ccc(N[C@H](CCN5CCOCC5)CSc5ccccc5)c(S(=O)(=O)C(F)(F)F)c4)cc3)CC2)C1 [ABT263]
Platelet apoptosis / thrombocytopenia (platelets [1]): induces platelet apoptosis and results in severe thrombocytopenia

CC1(C)CCC(c2ccc(Cl)cc2)=C(CN2CCN(c3ccc(C(=O)NS(=O)(=O)c4ccc(N[C@H](CCN5CCN(C(=O)CCCn6cc(COCCOCCNc7cccc8c7C(=O)N(C7CCC(=O)NC7=O)C8=O)nn6)CC5)CSc5ccccc5)c(S(=O)(=O)C(F)(F)F)c4)cc3)CC2)C1 (stereo partly shown) [PZ15227]
Toxicity to platelets compared with ABT263 (platelets [2]): less toxic to platelets
Potency against SnCs compared with ABT263 (SnCs): equally or slightly more potent against SnCs
